# Entries after “also recorded” stand apart in the source; their conditions may differ. Non-standard residues stand in square brackets, D forms with d. Residues, ends and D or L forms follow the SMILES beside them. *: point of attachment. X1 = O=C(CCCC[C@@H]1SC[C@@H]2NC(=O)N[C@@H]21)NCCCOCCOCCOCCCN*; PEG12 = NCCOCCOCCOCCOCCOCCOCCOCCOCCOCCOCCOCCOCCC(=O)O
# Experiments:
# [1] = test system: H1299 cells; assay: Cell binding and internalization by flow cytometry, relative (normalized) uptake of peptide-streptavidin-phycoerythrin; assay type: cell-based, human; conditions: for Bmax (best-fit): Supplementary Table 2, normalized binding; for fold decrease in affinity: C-terminal truncation versus full-length monomer
# Procedure: MGS4 was initially selected by phage display biopanning of a peptide library on live cells. […] As such, multivalent binding is often required. To ascertain whether multivalent binding is required for MGS4 internalization, monomeric (MGS4_V2) and tetrameric (MGS4_V1) peptides were synthesized and labeled as described (Supplementary Figure 1). After incubation of varying peptide concentrations on live cells, surface-bound peptide was removed by low pH washes, as well as trypsinization. Relative internalization was measured by flow cytometry to determine an EC50 value which represents the concentration of peptide producing half-maximal internalization. This measurement is dependent on the affinity of the peptide for its cellular target and the rate of internalization. This is a more accurate representation of the biological situation and useful in evaluating the peptides as drug delivery agents. As expected for receptor-mediated endocytosis, uptake of MGS4 is saturable with increasing concentration.
# Fig. 1 Monomeric and tetrameric MGS4 have similar binding, internalization and subcellular location. a Binding and internalization of tetrameric MGS4_V1 and monomeric MGS4_V2 on live H1299 cells in culture. Cells were incubated with the peptide conjugated to streptavidin-phycoerythrin for 1 h at 37 °C. Non-internalized peptide was removed and the cells were analyzed by flow cytometry. b H1299 cells were incubated with MGS4_V1 or MGS4_V2 conjugated to streptavidin-Alexa Fluor 555 (red) for 1 h, washed, fixed and counterstained with WGA-Alexa Fluor 488 (green, cell membrane) and DAPI (blue, nuclei) and analyzed by fluorescence microscopy. The scale bar represents 20 µm. MGS4_V1 and MGS4_V2 internalize to a similar degree and localize to a similar destination. c Truncated monomeric MGS4 peptides have similar EC50 as the parental full-length peptide. Individual measurements are shown. The mean is shown as an “X” and black error bars represent standard error for a minimum of three experimental replicates (SEM). All original binding data and nonlinear regression analysis of the data are included in the supplementary materials.
# Biotinylated peptide was conjugated to streptavidin-R-phycoerythrin or streptavidin-Alexa Fluor 647 (1:1 molar ratio) for 30 min. The open binding sites on streptavidin were quenched with RPMI 1640 and diluted to the indicated concentration. Tumor cells were grown to 90% confluency in a 12 well plate, then incubated with 500 µl peptide-dye conjugate at 37 °C. After 1 h, peptide was removed, and the cells were washed 3x with PBS (137 mM NaCl, 2.7 mM KCl, 10 mM Na2HPO4, 1.8 mM KH2PO4, pH 7.4), 2x with 0.1 M HCl-glycine pH2.2 in 0.9% NaCl, and 1x PBS rinse. Cells were removed by trypsinization. Flow cytometry was performed on a BD FACSCelesta, and data were analyzed on Flowing software. Cells were gated based on the forward and side scatter to include only viable cells and a minimum of 10,000 events were counted. A region containing <5% of the cells in the negative control was established, and relative peptide uptake by the mean fluorescence intensity of that population. For absolute peptide uptake per cell, a standard curve was generated using Quantum™ Alexa Fluor 647 microspheres (Bangs Laboratory, Fishers, IN). A representative linear regression showing the correlation of molecule equivalents soluble fluorophores (MESF) vs the mean fluorescence intensity (MFI) is shown in Supplemental Figure 6. Cells were gated based on the forward and side scatter to include only viable cells and a minimum of 10,000 events were counted. MFI was determined at 50% at peak height. Molecules internalized per cell were determined by the standard curve relating MESF to MFI and divided by the number dye molecules/MGS conjugate. An example is shown in supplemental Figure 7. GraphPad Prism® was used for non-linear regression curve fitting to calculate an EC50. […]
# [2] = Stability in human serum; assay type: in vitro ADME; conditions: 100% human serum, 48 h, 37 °C, serum proteins precipitated, analytical HPLC, MALDI TOF/TOF MS
# Procedure: To address if acetylation is effective in reducing serum degradation of MGS4, acetylated (MGS4_V8) and non-acetylated (MGS4_V4) peptides were dissolved in human serum and incubated for 48 h at 37 °C. The peptides were monitored by analytical HPLC, and products were verified via MALDI TOF/TOF™ MS. […] Instead, a mixture of peptide fragments is detected, none of which correspond to the mass of the starting peptide (Supplemental Table 1 and Supplemental Fig. 2). The major products are shorter fragments corresponding to the loss of the five N-terminal amino acids. Fragments related to QSFYT-PEG11, SFYT-PEG11 and FYT-PEG11 are observed.
# Supplemental Figure 1. […]
# M GS4_V4 (non-acetylated, panel a) and M GS4_V8 (acetylated, panel b ) were incubated in 100% human serum for 0 and 48-hours. Serum proteins were precipitated, and the peptide was analyzed by analytical
# HPLC. The mass of the peptide and degradation products were determined by MALDI MS and are […]
# MGS4_V8, MGS4_V9, or MGS4_V10 were conjugated with streptavidin-Alexa Fluor 650 and were incubated with the indicated cell line for 1 hour. Non-internalized peptide was rem ov ed, and the mean number of peptides internalized per cell was determined to calculate the EC50. […]
# Supplemental Figure 4 : Peptide-Streptavidin conjugates are nontoxic to cells. a. […] After 72 hours, viability was measured. […]
# [3] = 100% human serum; conditions: 37 °C, up to 48 h
# [4] = H1299 cells, 1 h at 37 °C, normalized uptake, one-site specific binding fit, Average ± SEM, minimum 3 replicates
compound,measurement,setting,value
CC(C)[C@H](NC(=O)[C@H](C)NC(=O)[C@H](Cc1c[nH]cn1)NC(=O)[C@@H](N)Cc1ccccc1)C(=O)N1CCC[C@H]1C(=O)N[C@@H](CCC(N)=O)C(=O)N[C@@H](CO)C(=O)N[C@@H](Cc1ccccc1)C(=O)N[C@@H](Cc1ccc(O)cc1)C(=O)N[C@H](C(=O)N[C@@H](C)C(=O)N1CCC[C@H]1C(=O)NCCOCCOCCOCCOCCOCCOCCOCCOCCOCCOCCOCCOCCC(=O)N[C@@H](CCC(=O)NCCCOCCOCCOCCCNC(=O)CCCC[C@@H]1SC[C@@H]2NC(=O)N[C@@H]21)C(N)=O)[C@@H](C)O [MGS4_V2] (H-FHAVPQSFYTAP[PEG12]E(X1)-NH2),Bmax (best-fit),[1],1.065
CC(C)[C@H](NC(=O)[C@H](C)NC(=O)[C@H](Cc1c[nH]cn1)NC(=O)[C@@H](N)Cc1ccccc1)C(=O)N1CCC[C@H]1C(=O)N[C@@H](CCC(N)=O)C(=O)N[C@@H](CO)C(=O)N[C@@H](Cc1ccccc1)C(=O)N[C@@H](Cc1ccc(O)cc1)C(=O)N[C@H](C(=O)N[C@@H](C)C(=O)NCCOCCOCCOCCOCCOCCOCCOCCOCCOCCOCCOCCOCCC(=O)N[C@@H](CCC(=O)NCCCOCCOCCOCCCNC(=O)CCCC[C@@H]1SC[C@@H]2NC(=O)N[C@@H]21)C(N)=O)[C@@H](C)O [MGS4_V3] (H-FHAVPQSFYTA[PEG12]E(X1)-NH2),fold decrease in affinity,[1],3-5 fold
same,Bmax (best-fit),[1],1.247
CC(C)[C@H](NC(=O)[C@H](C)NC(=O)[C@H](Cc1c[nH]cn1)NC(=O)[C@@H](N)Cc1ccccc1)C(=O)N1CCC[C@H]1C(=O)N[C@@H](CCC(N)=O)C(=O)N[C@@H](CO)C(=O)N[C@@H](Cc1ccccc1)C(=O)N[C@@H](Cc1ccc(O)cc1)C(=O)N[C@H](C(=O)NCCOCCOCCOCCOCCOCCOCCOCCOCCOCCOCCOCCOCCC(=O)N[C@@H](CCC(=O)NCCCOCCOCCOCCCNC(=O)CCCC[C@@H]1SC[C@@H]2NC(=O)N[C@@H]21)C(N)=O)[C@@H](C)O [MGS4_V4] (H-FHAVPQSFYT[PEG12]E(X1)-NH2),fold decrease in affinity,[1],3-5 fold
same,Bmax (best-fit),[1],1.402
same,peptide after incubation in human serum,[2],none of the starting material
CC(=O)N[C@@H](Cc1ccccc1)C(=O)N[C@@H](Cc1c[nH]cn1)C(=O)N[C@@H](C)C(=O)N[C@H](C(=O)N1CCC[C@H]1C(=O)N[C@@H](CCC(N)=O)C(=O)N[C@@H](CO)C(=O)N[C@@H](Cc1ccccc1)C(=O)N[C@@H](Cc1ccc(O)cc1)C(=O)N[C@H](C(=O)N[C@@H](C)C(=O)N1CCC[C@H]1C(=O)NCCOCCOCCOCCOCCOCCOCCOCCOCCOCCOCCOCCOCCC(=O)N[C@@H](CCC(=O)NCCCOCCOCCOCCCNC(=O)CCCC[C@@H]1SC[C@@H]2NC(=O)N[C@@H]21)C(N)=O)[C@@H](C)O)C(C)C [MGS4_V7] (Ac-FHAVPQSFYTAP[PEG12]E(X1)-NH2),Bmax (best-fit),[1],1.470
AcFHAVPQSFYT-PEG11,not cleaved,[3],only full-length peptide observed after 48 h; 93.4% of peak at 48 Hours (93.5% in starting material)
"FHAVPQSFY*** [MGS4_V5, monomeric MGS4 truncated by three C-terminal amino acids]",EC50 (nM),[1]; [4],Not Detected^2
FHAVPQSFYT-PEG11,cleaved bond,[3],"P-Q, major, 48 Hours"
same,fragment found,[3],"SFYT-PEG11, 48 Hours; also recorded: FYT-PEG11, 48 Hours"
"FHAVPQSFYTAP [MGS4_V1, tetrameric full-length MGS4 peptide]",EC50,[1]; [4],3.6 ± 0.49 nM
same,Bmax (best-fit),[1],1.171

# — publication PMC9845330 (Communications Biology, 2023)
